Results published in the supplement of paper PMC10307832.

Tests used:
Assay in all cases: relative viability (nuclei count vs DMSO), 5 days (fraction); higher = more cells survive
BMX-IN-1 + Vorinostat = compound: C=CC(=O)Nc1cc(-n2c(=O)ccc3cnc4ccc(-c5ccc(NS(C)(=O)=O)cc5)cc4c32)ccc1C [BMX-IN-1] + O=C(CCCCCCC(=O)Nc1ccccc1)NO [Vorinostat] (partner 1 µM)
Procedure, shortened: (§1)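 Dosing by pin tool came one day after lung cancer cell lines were seeded in 1536-well plates, using either one drug or a fixed anchor-drug dose plus five library-drug doses (not always all listed) in √10 steps. After 5 days, nuclei were counted on 4× images. Relative viability is treated-well nuclei count divided by vehicle-well nuclei count, and values are medians of duplicate plates.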

BMX-IN-1 + Trametinib = compound: C=CC(=O)Nc1cc(-n2c(=O)ccc3cnc4ccc(-c5ccc(NS(C)(=O)=O)cc5)cc4c32)ccc1C [BMX-IN-1] + CC(=O)Nc1cccc(-n2c(=O)n(C3CC3)c(=O)c3c(Nc4ccc(I)cc4F)n(C)c(=O)c(C)c32)c1 [Trametinib] (partner 0.02 µM)
Procedure, shortened: as §1

PAC-1 + Dasatinib = compound: C=CCc1cccc(/C=N/NC(=O)CN2CCN(Cc3ccccc3)CC2)c1O [PAC-1] + Cc1nc(Nc2ncc(C(=O)Nc3c(C)cccc3Cl)s2)cc(N2CCN(CCO)CC2)n1 [Dasatinib] (partner 0.075 µM)
Procedure, shortened: as §1

Ibrutinib + Alpelisib = compound: C=CC(=O)N1CCC[C@@H](n2nc(-c3ccc(Oc4ccccc4)cc3)c3c(N)ncnc32)C1 [Ibrutinib] + Cc1nc(NC(=O)N2CCC[C@H]2C(N)=O)sc1-c1ccnc(C(C)(C)C(F)(F)F)c1 [Alpelisib] (partner 2 µM)
Procedure, shortened: as §1

Cell Line	relative viability (BMX-IN-1 + Vorinostat; first compound 0.02 µM)	relative viability (BMX-IN-1 + Vorinostat; first compound 0.2 µM)	relative viability (BMX-IN-1 + Vorinostat; first compound 0.6325 µM)	relative viability (BMX-IN-1 + Vorinostat; first compound 2 µM)	relative viability (BMX-IN-1 + Trametinib; first compound 0.02 µM)	relative viability (BMX-IN-1 + Trametinib; first compound 0.2 µM)	relative viability (BMX-IN-1 + Trametinib; first compound 0.6325 µM)	relative viability (BMX-IN-1 + Trametinib; first compound 2 µM)	relative viability (PAC-1 + Dasatinib; first compound 0.02 µM)	relative viability (PAC-1 + Dasatinib; first compound 0.06325 µM)	relative viability (PAC-1 + Dasatinib; first compound 0.2 µM)	relative viability (PAC-1 + Dasatinib; first compound 2 µM)	relative viability (Ibrutinib + Alpelisib; first compound 0.005 µM)	relative viability (Ibrutinib + Alpelisib; first compound 0.01581 µM)	relative viability (Ibrutinib + Alpelisib; first compound 0.05 µM)	relative viability (Ibrutinib + Alpelisib; first compound 0.5 µM)	relative viability (Ibrutinib + Alpelisib; first compound 0.1581 µM)
NCI-H1993	0.767	0.9	0.85	0.898	0.531	0.588	0.464	0.56	0.65	0.611	0.421	0.483	0.644	0.715	0.613	0.742	–
NCI-H2009	0.782	0.798	0.746	0.839	0.254	0.251	0.239	0.29	0.267	0.305	0.291	0.334	1.24	1.12	1.16	1.16	1.15
NCI-H2023	0.726	0.742	0.654	0.105	0.586	0.564	0.623	0.539	0.553	0.615	0.42	0.55	0.567	0.574	0.492	0.568	0.66
NCI-H2085	0.816	0.771	0.821	0.831	0.52	0.75	0.564	0.538	0.225	0.234	0.285	0.213	0.965	0.893	0.862	0.743	0.977
NCI-H2087	0.66	1.12	0.837	0.575	0.204	0.174	0.214	0.218	0.915	0.848	0.798	0.78	1.09	–	1.19	1.19	–
NCI-H2126	0.829	0.697	0.864	0.786	0.55	0.55	0.592	0.603	0.615	0.584	0.642	0.615	–	0.7	0.769	0.606	0.763
NCI-H2170	0.724	1.06	0.79	0.849	0.951	1.02	1.09	0.906	0.499	0.506	0.625	0.712	0.728	0.362	0.278	0.231	0.773
NCI-H2228	0.938	0.884	0.531	0.561	0.41	0.596	0.481	0.488	0.506	0.505	0.537	0.501	0.807	0.677	0.747	0.671	0.723
NCI-H2347	0.725	0.716	0.586	0.596	0.295	0.291	0.322	0.292	0.28	0.3	0.312	0.362	1	1.1	0.933	1.12	1.01
NCI-H2405	1.05	1.13	1.16	0.955	0.688	0.642	0.659	0.591	0.173	0.221	0.207	0.176	0.706	0.713	0.83	0.706	–
NCI-H3122	0.938	1.1	0.902	1.14	0.228	0.253	0.238	0.272	0.828	0.811	0.857	0.764	0.686	0.743	0.873	0.711	0.583
PC-3 [JPC-3]	0.953	0.831	0.916	0.766	0.697	0.712	0.738	0.677	1.06	0.986	0.981	0.975	1.03	0.946	0.941	0.517	1.04
PC-14	0.863	0.86	1.01	0.0519	0.814	1.01	0.927	0.793	0.248	0.265	0.279	0.249	0.974	0.954	0.909	0.632	1.05
RERF-LC-KJ	0.77	0.734	0.824	0.45	0.967	0.897	0.867	0.909	0.826	0.812	0.775	0.786	0.526	0.731	0.791	0.585	0.638
SK-LU-1	0.719	0.969	0.797	0.69	0.381	0.522	0.481	0.403	0.208	0.173	0.185	0.181	0.751	1.06	1.31	1.06	1.06
SW 1573	0.845	0.98	0.709	0.0976	0.657	0.719	0.624	0.507	0.537	0.561	0.44	0.52	0.632	0.807	0.844	0.811	0.749
UMC-11	0.343	0.417	0.336	0.332	0.831	0.727	0.763	0.738	0.483	0.484	0.462	0.437	0.957	1.01	0.958	0.964	1.01
